The test system of test [1] is ENFs. The experiment in a line: ENFs cultured on stiff tissue culture plastic (TCPS) with ROCK inhibitor: En-1 activation. The test is classed as cell-based, mouse. The conditions noted are these: bulk ENFs on stiff TCPS with ROCK inhibitor, 14 days in culture. An excerpt: (§1) Mice were euthanized by CO2 narcosis and cervical dislocation, the dorsal fur was clipped, a depilatory cream was applied topically to the dorsum for 30 seconds. Next, the dorsal skin was harvested using dissecting scissors by separation along fascial planes, the subcutaneous fat was trimmed with a scalpel, and the skin was rinsed in betadine, followed by 5 rinses in cold PBS. To achieve a cell suspension, the harvested skin was finely minced using sharp scissors, enzymatically digested (Liberase DL, 0.5 mg/mL, 1 hour), and filtered through a 40 μm nylon mesh. ENFs and EPFs were isolated from En-1^Cre;R26^mTmG mice (En-1 lineage-negative cells, mTomato^+; En-1 lineage-positive cells, GFP^+) via a previously reported FACS strategy. Briefly, a lineage gate (Lin) for hematopoietic (CD45, Ter-119), endothelial (CD31, Tie2), and epithelial (CD326, CD324) cell markers was used as a negative gate to isolate fibroblasts (Lin^−), which were sorted into ENFs (Tornato^+GFP^−Lin^−) and EPFs (Tomato^−GFP+ Lin^−). To isolate ENF subpopulations, dorsal skin cells were harvested from P1 En-1^Cre,Ai6 mice (En-1 lineage-negative cells, no fluorescence; En-1 lineage-positive cells, GFP^+) via mechanical and enzymatic digestion as described above. […]

The subject of test [2] is reticular dermal (Dlk1^+) ENFs. The test can be described thus: Fractionated ENF subpopulations cultured on TCPS with or without ROCK inhibitor. The test is classed as cell-based, mouse. The conditions noted are these: 14 days, ROCK inhibitor added.
Source text: as §1

`C[C@@H](N)[C@H]1CC[C@H](C(=O)Nc2ccncc2)CC1` [Y-27632]: the “En-1 activation (conversion of ENFs to GFP+ EPFs)” value in test [1] is recorded as “lack of En-1 activation”. In addition, the “En-1 activation in Dlk1+ ENFs” value in test [2] is reported as “blocked”.

These data come from patent US20220313658A1, “YAP Inhibition for Wound Healing” (The Board of Trustees of the Leland Stanford Junior …, priority 2019, published 2022).
